Target: PKM2 (Homo sapiens, UniProt P14618)
Assay: PKM2 Biochemical Assay
Settings: for Max. Resp.: % maximum response in a biochemical assay as compared with Fructose 1,6-bisphosphate
Protocol: Full length, human PKM2 enzyme was obtained from Promab (Richmond, Calif.). All reagents, unless otherwise noted, were obtained from Sigma (St. Louis, Mo.).
Compounds were pre-incubated with 2 nM PKM2 in reaction buffer (50 mM Tris-HCl, pH 8.0, 200 mM KCl, 30 mM MgCl2, 2 mM DTT, 5% DMSO) for 30 min at ambient temperature. […] After 30 min, ATP formation was measured by Kinase Glo (Promega, Madison, Wis.), and AC50 values were determined using Prism (GraphPad Software, Inc., La Jolla, Calif.).

Chain of PKM2 (P14618 whole entry): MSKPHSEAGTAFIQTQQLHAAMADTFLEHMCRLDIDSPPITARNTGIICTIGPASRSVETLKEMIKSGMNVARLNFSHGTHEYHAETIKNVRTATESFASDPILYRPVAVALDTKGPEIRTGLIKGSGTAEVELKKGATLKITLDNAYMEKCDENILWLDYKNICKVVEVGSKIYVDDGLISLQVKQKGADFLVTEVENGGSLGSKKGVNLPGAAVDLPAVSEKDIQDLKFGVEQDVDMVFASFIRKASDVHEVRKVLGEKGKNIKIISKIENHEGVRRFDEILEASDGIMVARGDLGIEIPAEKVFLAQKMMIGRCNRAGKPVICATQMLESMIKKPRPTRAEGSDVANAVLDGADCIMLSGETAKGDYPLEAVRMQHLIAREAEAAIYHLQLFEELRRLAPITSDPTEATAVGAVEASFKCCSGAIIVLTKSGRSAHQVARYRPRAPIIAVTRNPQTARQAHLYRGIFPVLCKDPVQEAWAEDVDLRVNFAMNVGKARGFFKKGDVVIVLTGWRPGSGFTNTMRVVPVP

Compound	Max. Resp. [%]	AC50 [nM]
O=C(c1cc(C(F)(F)F)n[nH]1)N(CCC1CC1)Cc1ccc(O)cc1F [Example 140, N-(2-fluoro-4-hydroxybenzyl)-N-(2-cyclopropylethyl)-3-(trifluoromethyl)-1H-pyrazole-5-carboxamide]	100	–
O=C(c1cc(C(F)(F)F)n[nH]1)N(Cc1cccc(Cl)c1O)CC1CCC1 [Example 141, N-(3-chloro-2-hydroxybenzyl)-N-(cyclobutylmethyl)-3-(trifluoromethyl)-1H-pyrazole-5-carboxamide]	100	–
COCCN(Cc1ccc(O)cc1F)C(=O)c1cc(C(F)(F)F)n[nH]1 [Example 142, N-(2-fluoro-4-hydroxybenzyl)-3-(trifluoromethyl)-N-(2-methoxyethyl)-1H-pyrazole-5-carboxamide]	100	–
CCN(CC)CCN(Cc1ccc(O)cc1F)C(=O)c1cc(C(F)(F)F)n[nH]1 [Example 143, N-(2-fluoro-4-hydroxybenzyl)-N-(2-(diethylamino)ethyl)-3-(trifluoromethyl)-1H-pyrazole-5-carboxamide]	100	–
CCN(CC)CCN(Cc1ccccc1F)C(=O)c1cc(C(F)(F)F)n[nH]1 [Example 148, N-(2-fluorobenzyl)-N-(2-(diethylamino)ethyl)-3-(trifluoromethyl)-1H-pyrazole-5-carboxamide]	100	–
O=C(c1cc(C(F)(F)F)n[nH]1)N(CCC1CC1)Cc1ccccc1F [Example 149, N-(2-fluorobenzyl)-N-(2-cyclopropylethyl)-3-(trifluoromethyl)-1H-pyrazole-5-carboxamide]	100	–
O=C(c1cc(C(F)(F)F)n[nH]1)N(Cc1ccccc1F)CC1CCOC1 (stereo not shown) [Example 150, N-(2-fluorobenzyl)-3-(trifluoromethyl)-N-((tetrahydrofuran-3-yl)methyl)-1H-pyrazole-5-carboxamide]	68	–
CCN1CCC(N(Cc2ccccc2F)C(=O)c2cc(C(F)(F)F)n[nH]2)C1 (stereo not shown) [Example 152, N-(2-fluorobenzyl)-N-(1-ethylpyrrolidin-3-yl)-3-(trifluoromethyl)-1H-pyrazole-5-carboxamide]	68	–
O=C(c1cc(C(F)(F)F)n[nH]1)N(Cc1ccccc1F)C1CCCCC1 [Example 153, N-(2-fluorobenzyl)-N-cyclohexyl-3-(trifluoromethyl)-1H-pyrazole-5-carboxamide]	57	–
CCN(CC)CCN(Cc1cccc(N)c1)C(=O)c1cc(C(F)(F)F)n[nH]1 [Example 154, N-(3-aminobenzyl)-N-(2-(diethylamino)ethyl)-3-(trifluoromethyl)-1H-pyrazole-5-carboxamide]	100	–
CCNCCN(Cc1ccccc1F)C(=O)c1cc(C(F)(F)F)n[nH]1 [Example 155, N-(2-fluorobenzyl)-N-(2-(ethylamino)ethyl)-3-(trifluoromethyl)-1H-pyrazole-5-carboxamide]	100	–
O=C(c1cc(C(F)(F)F)n[nH]1)N(CCN1CCCC1)Cc1ccccc1F [Example 158, N-(2-fluorobenzyl)-3-(trifluoromethyl)-N-(2-(pyrrolidin-1-yl)ethyl)-1H-pyrazole-5-carboxamide]	100	–
CCN(CC)CCN(Cc1ccccc1Cl)C(=O)c1cc(C(F)(F)F)n[nH]1 [Example 159, N-(2-chlorobenzyl)-N-(2-(diethylamino)ethyl)-3-(trifluoromethyl)-1H-pyrazole-5-carboxamide]	100	–
CCN(CC)CCN(Cc1cccc2[nH]cnc12)C(=O)c1cc(C(F)(F)F)n[nH]1 [Example 160, N-((1H-benzo[d]imidazol-4-yl)methyl)-N-(2-(diethylamino)ethyl)-3-(trifluoromethyl)-1H-pyrazole-5-carboxamide]	100	–
CCN(CC)CCN(Cc1cccc2[nH]ccc12)C(=O)c1cc(C(F)(F)F)n[nH]1 [Example 161, N-((1H-indol-4-yl)methyl)-N-(2-(diethylamino)ethyl)-3-(trifluoromethyl)-1H-pyrazole-5-carboxamide]	100	–
O=C(c1cc(C(F)(F)F)n[nH]1)N(CCN1CCCC1)Cc1ccccc1Cl [Example 162, N-(2-chlorobenzyl)-3-(trifluoromethyl)-N-(2-(pyrrolidin-1-yl)ethyl)-1H-pyrazole-5-carboxamide]	100	–
O=C(c1cc(C(F)(F)F)n[nH]1)N(CCN1CCCC1)Cc1cccc2nc[nH]c12 [Example 163, N-((1H-benzo[d]imidazol-7-yl)methyl)-3-(trifluoromethyl)-N-(2-(pyrrolidin-1-yl)ethyl)-1H-pyrazole-5-carboxamide]	100	–
O=C(c1cc(C(F)(F)F)n[nH]1)N(CCN1CCCC1)Cc1cccc2[nH]ccc12 [Example 164, N-((1H-indol-4-yl)methyl)-3-(trifluoromethyl)-N-(2-(pyrrolidin-1-yl)ethyl)-1H-pyrazole-5-carboxamide]	100	–

Compound	Max. Resp. [%]	AC50 [nM]
O=C(c1cc(C(F)(F)F)n[nH]1)N(CCN1CCCC1)Cc1ccc(Cl)cc1Cl [Example 165, N-(2,4-dichlorobenzyl)-3-(trifluoromethyl)-N-(2-(pyrrolidin-1-yl)ethyl)-1H-pyrazole-5-carboxamide]	50	–
CCN(CC)CCN(Cc1cccc(Cl)c1Cl)C(=O)c1cc(C(F)(F)F)n[nH]1 [Example 167, N-(2,3-dichlorobenzyl)-N-(2-(diethylamino)ethyl)-3-(trifluoromethyl)-1H-pyrazole-5-carboxamide]	100	–
CCN(CC)CCN(Cc1cc(Cl)ccc1Cl)C(=O)c1cc(C(F)(F)F)n[nH]1 [Example 168, N-(2,5-dichlorobenzyl)-N-(2-(diethylamino)ethyl)-3-(trifluoromethyl)-1H-pyrazole-5-carboxamide]	100	–
CCN(CC)CCN(Cc1c(Cl)cccc1Cl)C(=O)c1cc(C(F)(F)F)n[nH]1 [Example 169, N-(2,6-dichlorobenzyl)-N-(2-(diethylamino)ethyl)-3-(trifluoromethyl)-1H-pyrazole-5-carboxamide]	100	–
CCN(CC)CCN(Cc1ccc(F)cc1Cl)C(=O)c1cc(C(F)(F)F)n[nH]1 [Example 170, N-(2-chloro-4-fluorobenzyl)-N-(2-(diethylamino)ethyl)-3-(trifluoromethyl)-1H-pyrazole-5-carboxamide]	100	–
CCN(CC)CCN(Cc1cc(F)ccc1Cl)C(=O)c1cc(C(F)(F)F)n[nH]1 [Example 171, N-(2-chloro-5-fluorobenzyl)-N-(2-(diethylamino)ethyl)-3-(trifluoromethyl)-1H-pyrazole-5-carboxamide]	100	–
CCN(CC)CCN(Cc1ccccc1Cl)C(=O)c1cc(Br)n[nH]1 [Example 175, N-(2-chlorobenzyl)-3-bromo-N-(2-(diethylamino)ethyl)-1H-pyrazole-5-carboxamide]	100	–
CCN(CC)CCN(Cc1ccccc1Cl)C(=O)c1cc(Cl)n[nH]1 [Example 176, N-(2-chlorobenzyl)-3-chloro-N-(2-(diethylamino)ethyl)-1H-pyrazole-5-carboxamide]	100	1150
O=C(c1cc(C(F)(F)F)n[nH]1)N(CCN1CCCC1)Cc1c(F)cccc1Cl [Example 177, N-(2-chloro-6-fluorobenzyl)-3-(trifluoromethyl)-N-(2-(pyrrolidin-1-yl)ethyl)-1H-pyrazole-5-carboxamide]	100	–
O=C(c1cc(C(F)(F)F)n[nH]1)N(CCN1CCCC1)Cc1c(Cl)cccc1Cl [Example 178, N-(2,6-dichlorobenzyl)-3-(trifluoromethyl)-N-(2-(pyrrolidin-1-yl)ethyl)-1H-pyrazole-5-carboxamide]	100	–
O=C(c1cc(C(F)(F)F)n[nH]1)N(CCN1CCCCC1)Cc1c(F)cccc1Cl [Example 179, N-(2-chloro-6-fluorobenzyl)-3-(trifluoromethyl)-N-(2-(piperidin-1-yl)ethyl)-1H-pyrazole-5-carboxamide]	100	–
O=C(c1cc(C(F)(F)F)n[nH]1)N(CCN1CCCCC1)Cc1c(Cl)cccc1Cl [Example 180, N-(2,6-dichlorobenzyl)-3-(trifluoromethyl)-N-(2-(piperidin-1-yl)ethyl)-1H-pyrazole-5-carboxamide]	100	–
CC(CN(Cc1ccccc1Cl)C(=O)c1cc(C(F)(F)F)n[nH]1)N1CCCC1 (stereo not shown) [Example 181, N-(2-chlorobenzyl)-3-(trifluoromethyl)-N-(2-(pyrrolidin-1-yl)propyl)-1H-pyrazole-5-carboxamide]	100	–
CCN(CC)CCN(Cc1cccc(F)c1Cl)C(=O)c1cc(C(F)(F)F)n[nH]1 [Example 182, N-(2-chloro-3-fluorobenzyl)-N-(2-(diethylamino)ethyl)-3-(trifluoromethyl)-1H-pyrazole-5-carboxamide]	100	–
CCN(CC)CCN(Cc1cc(N)ccc1Cl)C(=O)c1cc(C(F)(F)F)n[nH]1 [Example 183, N-(5-amino-2-chlorobenzyl)-N-(2-(diethylamino)ethyl)-3-(trifluoromethyl)-1H-pyrazole-5-carboxamide]	100	–
CCN(CC)CCN(Cc1ccccc1C(C)C)C(=O)c1cc(C(F)(F)F)n[nH]1 [Example 184, N-(2-isopropylbenzyl)-N-(2-(diethylamino)ethyl)-3-(trifluoromethyl)-1H-pyrazole-5-carboxamide]	85	–
CCN(CC)CCCN(Cc1ccccc1Cl)C(=O)c1cc(C(F)(F)F)n[nH]1 [Example 185, N-(2-chlorobenzyl)-N-(3-(diethylamino)propyl)-3-(trifluoromethyl)-1H-pyrazole-5-carboxamide]	53	–
CN(C)CCCN(Cc1ccccc1Cl)C(=O)c1cc(C(F)(F)F)n[nH]1 [Example 186, N-(2-chlorobenzyl)-N-(3-(dimethylamino)propyl)-3-(trifluoromethyl)-1H-pyrazole-5-carboxamide]	100	–

From patent US10766865B2, “PKM2 modulators and methods for their use” (TOLERO PHARMACEUTICALS, INC., priority 2012, dated 2020)
